Results as given in the NIST ThermoML archive (doi:10.1021/acs.jced.7b00841).

Details: for mass density: Liquid, Vibrating tube method; for specific volume: Gas, isochoric method

FC(F)(F)/C=C/Cl [(E)-1-chloro-3,3,3-trifluoroprop-1-ene]
Details	mass density [kg/m3]	specific volume [m3/kg]
283.14 K, 29999 kPa	1358.6	–
283.15 K, 133 kPa	1297.8	–
283.15 K, 500 kPa	1298.7	–
283.15 K, 5000 kPa	1309.8	–
283.15 K, 10000 kPa	1321	–
283.15 K, 15000 kPa	1331.4	–
283.15 K, 20000 kPa	1341.1	–
283.15 K, 35000 kPa	1366.8	–
283.16 K, 1000 kPa	1300	–
283.16 K, 2500 kPa	1303.7	–
283.16 K, 25000 kPa	1350.1	–
293.14 K, 499 kPa	1275.3	–
293.14 K, 1000 kPa	1276.7	–
293.14 K, 2500 kPa	1280.9	–
293.14 K, 5000 kPa	1287.6	–
293.14 K, 15000 kPa	1311.3	–
293.14 K, 20000 kPa	1321.7	–
293.14 K, 35000 kPa	1349.2	–
293.15 K, 151 kPa	1274.3	–
293.15 K, 9999 kPa	1299.9	–
293.15 K, 25000 kPa	1331.4	–
293.16 K, 30000 kPa	1340.6	–
303.15 K, 250 kPa	1250.3	–
303.15 K, 501 kPa	1251.2	–
303.15 K, 1001 kPa	1252.7	–
303.15 K, 2499 kPa	1257.4	–
303.15 K, 5000 kPa	1264.8	–
303.15 K, 35000 kPa	1331.1	–
303.16 K, 10001 kPa	1278.4	–
303.16 K, 15003 kPa	1290.7	–
303.16 K, 20002 kPa	1301.9	–
303.16 K, 25001 kPa	1312.3	–
303.16 K, 30000 kPa	1322	–
308.15 K, 167 kPa	–	0.11
313.14 K, 35000 kPa	1313.5	–
313.15 K, 170 kPa	–	0.1101
313.15 K, 351 kPa	1225.4	–
313.15 K, 501 kPa	1226	–
313.15 K, 1000 kPa	1227.8	–
313.15 K, 2500 kPa	1233.1	–
313.15 K, 5000 kPa	1241.3	–
313.15 K, 10000 kPa	1256.4	–
313.15 K, 15000 kPa	1269.9	–
313.15 K, 19999 kPa	1282.1	–
313.15 K, 25000 kPa	1293.4	–
313.15 K, 30000 kPa	1303.8	–
318.15 K, 174 kPa	–	0.1101
323.15 K, 177 kPa	–	0.1101
323.15 K, 274 kPa	–	0.0684
323.15 K, 500 kPa	1199.9	–
323.15 K, 1000 kPa	1202	–
323.15 K, 2500 kPa	1208	–
323.15 K, 5000 kPa	1217.4	–
323.15 K, 10000 kPa	1234.3	–
323.15 K, 15000 kPa	1249.2	–
323.15 K, 19999 kPa	1262.7	–
323.15 K, 24999 kPa	1274.9	–
323.15 K, 30000 kPa	1286.3	–
323.15 K, 35000 kPa	1296.8	–
328.15 K, 180 kPa	–	0.1101
328.15 K, 280 kPa	–	0.0684
333.14 K, 2500 kPa	1182	–
333.14 K, 20000 kPa	1242.9	–
333.14 K, 25003 kPa	1256.2	–
333.14 K, 30002 kPa	1268.3	–
333.14 K, 35000 kPa	1279.5	–
333.15 K, 183 kPa	–	0.1101
333.15 K, 285 kPa	–	0.0684
333.15 K, 372 kPa	–	0.0508
333.15 K, 500 kPa	1172.6	–
333.15 K, 1000 kPa	1175.1	–
333.15 K, 5000 kPa	1192.7	–
333.15 K, 10000 kPa	1211.7	–
333.15 K, 15001 kPa	1228.2	–
338.15 K, 186 kPa	–	0.1102
338.15 K, 290 kPa	–	0.0685
338.15 K, 380 kPa	–	0.0509
338.15 K, 415 kPa	–	0.0461
343.15 K, 189 kPa	–	0.1102
343.15 K, 296 kPa	–	0.0685
343.15 K, 387 kPa	–	0.0509
343.15 K, 423 kPa	–	0.0461
343.15 K, 458 kPa	–	0.0419
343.15 K, 700 kPa	1145	–
343.15 K, 1000 kPa	1146.6	–
343.15 K, 2500 kPa	1154.6	–
343.15 K, 5000 kPa	1166.8	–
343.15 K, 10000 kPa	1188.1	–
343.15 K, 15000 kPa	1206.2	–
343.15 K, 20003 kPa	1222.1	–
343.15 K, 25000 kPa	1236.4	–
343.15 K, 30001 kPa	1249.4	–
343.15 K, 35002 kPa	1261.5	–
348.15 K, 192 kPa	–	0.1102
348.15 K, 301 kPa	–	0.0685
348.15 K, 394 kPa	–	0.0509
348.15 K, 431 kPa	–	0.0462
348.15 K, 468 kPa	–	0.0419
348.15 K, 550 kPa	–	0.0349
353.15 K, 195 kPa	–	0.1102
353.15 K, 306 kPa	–	0.0685
353.15 K, 401 kPa	–	0.0509
353.15 K, 439 kPa	–	0.0462
353.15 K, 477 kPa	–	0.042
353.15 K, 562 kPa	–	0.0349
353.15 K, 639 kPa	–	0.0297
353.15 K, 801 kPa	1114.4	–
353.15 K, 1000 kPa	1116.5	–
353.15 K, 2500 kPa	1125.4	–
353.15 K, 5000 kPa	1139.8	–
353.15 K, 10000 kPa	1163.9	–
353.15 K, 15000 kPa	1184.3	–
353.15 K, 20000 kPa	1201.7	–
353.15 K, 25000 kPa	1217.2	–
353.15 K, 30000 kPa	1231.2	–
353.15 K, 34999 kPa	1243.9	–
358.15 K, 198 kPa	–	0.1103
358.15 K, 311 kPa	–	0.0685
358.15 K, 409 kPa	–	0.0509
358.15 K, 447 kPa	–	0.0462
358.15 K, 486 kPa	–	0.042
358.15 K, 573 kPa	–	0.0349
358.15 K, 654 kPa	–	0.0297
363.14 K, 20001 kPa	1180.8	–
363.14 K, 35000 kPa	1226.2	–
363.15 K, 202 kPa	–	0.1103
363.15 K, 316 kPa	–	0.0685
363.15 K, 416 kPa	–	0.0509
363.15 K, 455 kPa	–	0.0462
363.15 K, 494 kPa	–	0.042
363.15 K, 584 kPa	–	0.0349
363.15 K, 667 kPa	–	0.0297
363.15 K, 1200 kPa	1085.8	–
363.15 K, 2500 kPa	1095.5	–
363.15 K, 5000 kPa	1112.1	–
363.15 K, 10000 kPa	1139.5	–
363.15 K, 15001 kPa	1161.9	–
363.15 K, 25001 kPa	1197.5	–
363.15 K, 30000 kPa	1212.5	–
368.15 K, 205 kPa	–	0.1103
368.15 K, 321 kPa	–	0.0685
368.15 K, 423 kPa	–	0.0509
368.15 K, 463 kPa	–	0.0462
368.15 K, 503 kPa	–	0.042
368.15 K, 594 kPa	–	0.0349
368.15 K, 680 kPa	–	0.0298
373.15 K, 208 kPa	–	0.1103
373.15 K, 326 kPa	–	0.0686
373.15 K, 430 kPa	–	0.0509
373.15 K, 470 kPa	–	0.0462
373.15 K, 512 kPa	–	0.042
373.15 K, 605 kPa	–	0.0349
373.15 K, 693 kPa	–	0.0298
